Experimental data from US8048862B2, “Macrocyclic inhibitors of hepatitis C virus replication” (priority 2008, dated 2011).

How the values were obtained:
hepatitis C replicon = hepatitis C replicon EC50; assay type: cell-based; conditions: Hepatitis C virus; Table 2; hepatitis C replicon; read-out: EC50
Excerpt: NS3-NS4 inhibition activity can be determined using known assay methods.

NS3/NS4 complexes = NS3/NS4 complexes (Hepatitis C virus genotype 1a, UniProt P27958); assay: NS3/NS4 inhibition activity (IC50); assay type: biochemical; conditions: Table 2, read-out: IC50
Chain of NS3/NS4 complexes (P27958 1027-1657): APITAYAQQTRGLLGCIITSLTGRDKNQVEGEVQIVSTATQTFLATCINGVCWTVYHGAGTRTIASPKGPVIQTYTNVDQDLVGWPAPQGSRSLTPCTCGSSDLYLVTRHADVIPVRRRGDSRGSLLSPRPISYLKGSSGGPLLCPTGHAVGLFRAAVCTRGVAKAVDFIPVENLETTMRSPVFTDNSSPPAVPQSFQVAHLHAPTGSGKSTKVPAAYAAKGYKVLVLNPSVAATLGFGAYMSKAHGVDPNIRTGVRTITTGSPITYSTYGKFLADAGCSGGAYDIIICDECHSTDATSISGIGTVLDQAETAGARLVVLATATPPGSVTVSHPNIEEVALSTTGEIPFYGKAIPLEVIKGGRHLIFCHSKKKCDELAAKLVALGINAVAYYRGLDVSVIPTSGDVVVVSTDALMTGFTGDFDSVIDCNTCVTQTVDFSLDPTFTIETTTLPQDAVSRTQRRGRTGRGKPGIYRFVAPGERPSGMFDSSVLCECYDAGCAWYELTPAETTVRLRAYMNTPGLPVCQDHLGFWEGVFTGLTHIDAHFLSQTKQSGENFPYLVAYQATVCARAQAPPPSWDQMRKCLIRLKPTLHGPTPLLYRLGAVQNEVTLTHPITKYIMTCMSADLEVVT
Chain of NS3/NS4 complexes (P27958 1658-1711): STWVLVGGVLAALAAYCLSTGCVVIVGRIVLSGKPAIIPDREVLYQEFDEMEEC
In short: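 NS3/NS4 complexes were formed and compound inhibitory concentrations determined at ambient temperature (23 °C). The buffer contained 50 mM Tris-HCl pH 7.5, 15% glycerol, 0.6 mM LDAO, 25 μM NS4A peptide and 10 mM DTT.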

Compound | EC50 (hepatitis C replicon) [nM] | IC50 (NS3/NS4 complexes) [nM]
COc1ccc2c(O[C@@H]3C[C@H]4C(=O)N[C@]5(C(=O)NS(=O)(=O)C6CC6)C[C@H]5/C=C\CCCCC[C@H](Nc5cccc(OC(F)(F)F)c5)C(=O)N4C3)cc(-c3nc(C(C)C)cs3)nc2c1C [Compound 377] | < 10 | < 10
COc1ccc2c(O[C@@H]3C[C@H]4C(=O)N[C@]5(C(=O)NS(=O)(=O)C6(C)CC6)C[C@H]5/C=C\CCCCC[C@H](Nc5cccc(OC(F)(F)F)c5)C(=O)N4C3)cc(-c3nc(C(C)C)cs3)nc2c1C [Compound 378] | < 10 | < 10
COc1ccc2c(O[C@@H]3C[C@H]4C(=O)N[C@]5(C(=O)NS(=O)(=O)C6(C)CC6)C[C@H]5/C=C\CCCCC[C@H](Nc5nc6ccccc6o5)C(=O)N4C3)cc(-c3nc(C(C)C)cs3)nc2c1C [Compound 379] | < 10 | < 10
CC1(S(=O)(=O)NC(=O)[C@@]23C[C@H]2/C=C\CCCCC[C@H](Nc2nc4ccccc4o2)C(=O)N2C[C@H](Oc4nccc5ccccc45)C[C@H]2C(=O)N3)CC1 [Compound 380] | 10 to 75 | < 10
CC1(S(=O)(=O)NC(=O)[C@@]23C[C@H]2/C=C\CCCCC[C@H](Nc2ccc(F)c(F)c2)C(=O)N2C[C@H](Oc4nccc5ccccc45)C[C@H]2C(=O)N3)CC1 [Compound 381] | 10 to 75 | < 10
CCn1c(O[C@@H]2C[C@H]3C(=O)N[C@]4(C(=O)NS(=O)(=O)C5CC5)C[C@H]4/C=C\CCCCC[C@H](Nc4cc(F)cc(C(F)(F)F)c4)C(=O)N3C2)nc2ccccc21 [Compound 388] | 10 to 75 | < 10
CC(C)n1c(O[C@@H]2C[C@H]3C(=O)N[C@]4(C(=O)NS(=O)(=O)N(C)C)C[C@H]4/C=C\CCCCC[C@H](Nc4cc(F)cc(C(F)(F)F)c4)C(=O)N3C2)nc2ccccc21 [Compound 391] | 10 to 75 | < 10
COc1ccc2c(O[C@@H]3C[C@H]4C(=O)N[C@]5(C(=O)NS(=O)(=O)C6(C)CC6)C[C@H]5/C=C\CCCCC[C@H](Nc5cccc(OC(F)(F)F)c5)C(=O)N4C3)cc(-c3ccccc3)nc2c1 [Compound 392] | < 10 | < 10
CC(C)n1c(O[C@@H]2C[C@H]3C(=O)N[C@]4(C(=O)NS(=O)(=O)C5CC5)C[C@H]4/C=C\CCCCC[C@H](Nc4cc(F)cc(C(F)(F)F)c4)C(=O)N3C2)nc2ccccc21 [Compound 393] | 10 to 75 | < 10
CCn1c(O[C@@H]2C[C@H]3C(=O)N[C@]4(C(=O)NS(=O)(=O)C5(C)CC5)C[C@H]4/C=C\CCCCC[C@H](Nc4ccccc4)C(=O)N3C2)nc2ccccc21 [Compound 395] | < 10 | < 10
CC1(S(=O)(=O)NC(=O)[C@@]23C[C@H]2/C=C\CCCCC[C@H](Nc2cc(F)cc(C(F)(F)F)c2)C(=O)N2C[C@H](Oc4nc(-c5ccccc5)cs4)C[C@H]2C(=O)N3)CC1 [Compound 396] | > 500 | < 10
CC(C)(C)Cn1c(O[C@@H]2C[C@H]3C(=O)N[C@]4(C(=O)NS(=O)(=O)C5(C)CC5)C[C@H]4/C=C\CCCCC[C@H](Nc4cc(F)cc(C(F)(F)F)c4)C(=O)N3C2)nc2ccccc21 [Compound 401] | 75 to 500 | < 10
CC(C)Cn1c(O[C@@H]2C[C@H]3C(=O)N[C@]4(C(=O)NS(=O)(=O)C5(C)CC5)C[C@H]4/C=C\CCCCC[C@H](Nc4cc(F)cc(C(F)(F)F)c4)C(=O)N3C2)nc2ccccc21 [Compound 402] | 10 to 75 | < 10
COc1ccc2c(O[C@@H]3C[C@H]4C(=O)N[C@]5(C(=O)NS(=O)(=O)C6CC6)C[C@H]5/C=C\CCCCC[C@H](Nc5ccccc5)C(=O)N4C3)cc(-c3nc(C(C)C)cs3)nc2c1C [Compound 407] | < 10 | < 10
COc1ccc2c(O[C@@H]3C[C@H]4C(=O)N[C@]5(C(=O)NS(=O)(=O)C6CC6)C[C@H]5/C=C\CCCCC[C@H](Nc5ccc(F)cc5)C(=O)N4C3)cc(-c3nc(C(C)C)cs3)nc2c1C [Compound 409] | < 10 | < 10
COc1ccc2c(O[C@@H]3C[C@H]4C(=O)N[C@]5(C(=O)NS(=O)(=O)C6CC6)C[C@H]5/C=C\CCCCC[C@H](Nc5cccc(F)c5)C(=O)N4C3)cc(-c3nc(C(C)C)cs3)nc2c1C [Compound 411] | < 10 | < 10
COc1ccc2c(O[C@@H]3C[C@H]4C(=O)N[C@]5(C(=O)NS(=O)(=O)N(C)C)C[C@H]5/C=C\CCCCC[C@H](Nc5ccccc5)C(=O)N4C3)cc(-c3nc(C(C)C)cs3)nc2c1C [Compound 412] | < 10 | < 10
COc1ccc2c(O[C@@H]3C[C@H]4C(=O)N[C@]5(C(=O)NS(=O)(=O)N(C)C)C[C@H]5/C=C\CCCCC[C@H](Nc5ccc(F)cc5)C(=O)N4C3)cc(-c3nc(C(C)C)cs3)nc2c1C [Compound 415] | < 10 | < 10
COc1ccc2c(O[C@@H]3C[C@H]4C(=O)N[C@]5(C(=O)NS(=O)(=O)N(C)C)C[C@H]5/C=C\CCCCC[C@H](Nc5cccc(F)c5)C(=O)N4C3)cc(-c3nc(C(C)C)cs3)nc2c1C [Compound 417] | < 10 | < 10
COc1ccc2c(O[C@@H]3C[C@H]4C(=O)N[C@]5(C(=O)NS(=O)(=O)C6CC6)C[C@H]5/C=C\CCCCC[C@H](Nc5cc(F)cc(C(F)(F)F)c5)C(=O)N4C3)cc(-c3nc(C(C)C)cs3)nc2c1C [Compound 439] | < 10 | < 10
CC1(S(=O)(=O)NC(=O)[C@@]23C[C@H]2/C=C\CCCCC[C@H](Nc2cccc(OC(F)(F)F)c2)C(=O)N2C[C@H](Oc4nccc5ccccc45)C[C@H]2C(=O)N3)CC1 [Compound 444] | 10 to 75 | < 10
COc1ccc2c(O[C@@H]3C[C@H]4C(=O)N[C@]5(C(=O)NS(=O)(=O)C6(C)CC6)C[C@H]5/C=C\CCCCC[C@H](Nc5ccc(C(F)(F)F)cc5)C(=O)N4C3)cc(-c3nc(C(C)C)cs3)nc2c1C [Compound 445] | < 10 | < 10
COc1ccc2c(O[C@@H]3C[C@H]4C(=O)N[C@]5(C(=O)NS(=O)(=O)C6CC6)C[C@H]5/C=C\CCCCC[C@H](Nc5ccc(C(F)(F)F)cc5)C(=O)N4C3)cc(-c3nc(C(C)C)cs3)nc2c1C [Compound 446] | < 10 | < 10
COc1ccc2c(O[C@@H]3C[C@H]4C(=O)N[C@]5(C(=O)NS(=O)(=O)C6CC6)C[C@H]5/C=C\CCCCC[C@H](Nc5ccc(F)c(C(F)(F)F)c5)C(=O)N4C3)cc(-c3nc(C(C)C)cs3)nc2c1C [Compound 447] | < 10 | < 10
COc1ccc2c(O[C@@H]3C[C@H]4C(=O)N[C@]5(C(=O)O)C[C@H]5/C=C\CCCCC[C@H](Nc5ccccc5)C(=O)N4C3)cc(-c3nc(C(C)C)cs3)nc2c1C [Compound 449] | 10 to 75 | < 10
COc1ccc2c(O[C@@H]3C[C@H]4C(=O)N[C@]5(C(=O)NS(=O)(=O)N6CCCC6)C[C@H]5/C=C\CCCCC[C@H](Nc5ccccc5)C(=O)N4C3)cc(-c3nc(C(C)C)cs3)nc2c1C [Compound 455] | < 10 | < 10
COc1ccc2c(O[C@@H]3C[C@H]4C(=O)N[C@]5(C(=O)NS(=O)(=O)N6CCCCC6)C[C@H]5/C=C\CCCCC[C@H](Nc5ccccc5)C(=O)N4C3)cc(-c3nc(C(C)C)cs3)nc2c1C [Compound 456] | 10 to 75 | < 10
COc1ccc2c(O[C@@H]3C[C@H]4C(=O)N[C@]5(C(=O)NS(=O)(=O)N(C)C)C[C@H]5/C=C\CCCCC[C@H](Nc5cccc(C(F)(F)F)c5)C(=O)N4C3)cc(-c3nc(C(C)C)cs3)nc2c1C [Compound 457] | < 10 | < 10
